Results reported in patent US20190336610A1, “GLUCOSE-SENSITIVE PEPTIDE HORMONES” (GUBRA APS, priority 2016, published 2019).
Blank lines part the entries; values can stand above or below the compound they belong to.

Columns and labels:
[1] = In vitro glucose sensing at different glucose concentration (UPLC-MS, formation of linker-glucose); type: physicochemical; conditions: 0.42 mM linker, PBS pH 7.4, 37° C.
Protocol: The aim with the example is to evaluate the reaction rate of three different linkers at various glucose concentrations i.e. their ability to hydrolyse and react with glucose to form a linker glucose conjugate.
1.4 mg of linker 1 ((E)-N′-(3-(benzyloxy)propylidene)-4-methoxybenzohydrazide) was dissolved in 100 μL DMSO. 10 μL of the DMSO stock solution was added to 990 μL 1×PBS buffer pH 7.4, containing 1000 or 5000 equiv glucose, to give a final concentration of 0.42 mM of linker 1. The solutions were heated to 37° C. and analysed at different time points from 0 to 48 h by UPLC-MS (C18 column, acetonitrile/water/formic acid). The linker-glucose compound was analysed as percentage of the full conversion of the reaction.
1.3 mg and 1.4 mg of linker 14 ((E)-N′-(2-(benzyloxy)ethylidene)-4-methoxybenzohydrazide) and linker 15 ((E)-N′-(2-(benzyloxy)ethylidene)-2-hydroxy-4-methoxybenzohydrazide), respectively, was dissolved in 100 μL DMSO. 10 μL of each stock solution was added to 990 μL 1×PBS buffer pH 7.4 containing 1000, 5000 or 10,000 equiv glucose, to give a final linker concentration of 0.42 mM. The solutions were heated to 37° C. and analysed at different time points from 0 to 72 h by UPLC-MS (C18 column, acetonitrile/water/formic acid). The linker-glucose compounds were analysed as percentage of the full conversion of the reaction.

[2] = In vitro glucose sensing evaluation (LC-MS): reactivity of each linker towards glucose; type: physicochemical; conditions: phosphate buffer pH 7, 1000 equiv glucose, 37° C.
Protocol: The aim with this example is to evaluate the reactivity of each linker towards glucose.
1-1.5 mg of linker was dissolved in 100 μL DMSO. Immediately after solvation, 5 μL was added to 995 μL phosphate buffer pH 7 containing 1000 equiv glucose. The mixture was heated to 37° C. and analysed continuously by LC-MS

lean rats = test: In vivo scITT in lean rats; conditions: s.c., 5 U insulin-C18 or 0.5 U human insulin

% linker-glucose ([1]; 1000 equiv glucose, 0 h): 0% | % linker-glucose ([1]; 1000 equiv glucose, 1.5 h): 3% | % linker-glucose ([1]; 1000 equiv glucose, 2 h): 3% | % linker-glucose ([1]; 1000 equiv glucose, 3 h): 5% | % linker-glucose ([1]; 1000 equiv glucose, 3.17 h): 4% | % linker-glucose ([1]; 1000 equiv glucose, 3.5 h): 4% | % linker-glucose ([1]; 1000 equiv glucose, 3.75 h): 4% | % linker-glucose ([1]; 1000 equiv glucose, 4 h): 5% | % linker-glucose ([1]; 1000 equiv glucose, 4.5 h): 6% | % linker-glucose ([1]; 1000 equiv glucose, 4.75 h): 6% | % linker-glucose ([1]; 1000 equiv glucose, 5 h): 6% | % linker-glucose ([1]; 1000 equiv glucose, 5.5 h): 6% | % linker-glucose ([1]; 1000 equiv glucose, 6 h): 9% | % linker-glucose ([1]; 1000 equiv glucose, 7 h): 9% | % linker-glucose ([1]; 1000 equiv glucose, 24 h): 29% | % linker-glucose ([1]; 1000 equiv glucose, 48 h): 70% | % linker-glucose ([1]; 5000 equiv glucose, 0 h): 0% | % linker-glucose ([1]; 5000 equiv glucose, 0.75 h): 3% | % linker-glucose ([1]; 5000 equiv glucose, 1 h): 6% | % linker-glucose ([1]; 5000 equiv glucose, 1.25 h): 7% | % linker-glucose ([1]; 5000 equiv glucose, 1.5 h): 10% | % linker-glucose ([1]; 5000 equiv glucose, 1.75 h): 10% | % linker-glucose ([1]; 5000 equiv glucose, 2 h): 14% | % linker-glucose ([1]; 5000 equiv glucose, 2.5 h): 18% | % linker-glucose ([1]; 5000 equiv glucose, 7 h): 49%
Compound: COc1ccc(C(=O)N/N=C/CCOCc2ccccc2)cc1 [Linker 1, (E)-N′-(3-(benzyloxy)propylidene)-4-methoxybenzohydrazide]

% linker-glucose ([1]; 1000 equiv glucose, 0 h): 0% | % linker-glucose ([1]; 1000 equiv glucose, 24 h): 7% | % linker-glucose ([1]; 1000 equiv glucose, 54 h): 11% | % linker-glucose ([1]; 1000 equiv glucose, 72 h): 17% | % linker-glucose ([1]; 5000 equiv glucose, 0 h): 0% | % linker-glucose ([1]; 5000 equiv glucose, 24 h): 16% | % linker-glucose ([1]; 5000 equiv glucose, 54 h): 30% | % linker-glucose ([1]; 5000 equiv glucose, 72 h): 50% | % linker-glucose ([1]; 10,000 equiv glucose, 0 h): 0% | % linker-glucose ([1]; 10,000 equiv glucose, 6 h): 3% | % linker-glucose ([1]; 10,000 equiv glucose, 24 h): 39% | % linker-glucose ([1]; 10,000 equiv glucose, 54 h): 62% | % linker-glucose ([1]; 10,000 equiv glucose, 72 h): 87%
Compound: COc1ccc(C(=O)N/N=C/COCc2ccccc2)cc1 [Linker 14, (E)-N′-(2-(benzyloxy)ethylidene)-4-methoxybenzohydrazide]

Linker-glucose observed [2]: ≤ 5 h | % linker-glucose ([1]; 1000 equiv glucose, 0 h): 0% | % linker-glucose ([1]; 1000 equiv glucose, 2 h): 1% | % linker-glucose ([1]; 1000 equiv glucose, 4 h): 3% | % linker-glucose ([1]; 1000 equiv glucose, 6 h): 5% | % linker-glucose ([1]; 1000 equiv glucose, 24 h): 21% | % linker-glucose ([1]; 1000 equiv glucose, 48 h): 35% | % linker-glucose ([1]; 5000 equiv glucose, 0 h): 0% | % linker-glucose ([1]; 5000 equiv glucose, 1 h): 2% | % linker-glucose ([1]; 5000 equiv glucose, 2 h): 6% | % linker-glucose ([1]; 5000 equiv glucose, 4 h): 12% | % linker-glucose ([1]; 5000 equiv glucose, 6 h): 21% | % linker-glucose ([1]; 5000 equiv glucose, 24 h): 68% | % linker-glucose ([1]; 5000 equiv glucose, 48 h): 98% | % linker-glucose ([1]; 10,000 equiv glucose, 0 h): 0% | % linker-glucose ([1]; 10,000 equiv glucose, 1 h): 9% | % linker-glucose ([1]; 10,000 equiv glucose, 2 h): 15% | % linker-glucose ([1]; 10,000 equiv glucose, 4 h): 33% | % linker-glucose ([1]; 10,000 equiv glucose, 6 h): 44% | % linker-glucose ([1]; 10,000 equiv glucose, 24 h): 89% | % linker-glucose ([1]; 10,000 equiv glucose, 48 h): 99%
Compound: COc1ccc(C(=O)N/N=C/COCc2ccccc2)c(O)c1 [Linker 15, (E)-N′-(2-(benzyloxy)ethylidene)-2-hydroxy-4-methoxybenzohydrazide]

Compound: Human insulin: human insulin, the unmodified peptide hormone used as comparator
Blood glucose % of vehicle (±SEM) (lean rats; 0 min (before)): 95 ± 3% | Blood glucose % of vehicle (±SEM) (lean rats; 60 min): 64 ± 4% | Blood glucose % of vehicle (±SEM) (lean rats; 120 min): 55 ± 6% | Blood glucose % of vehicle (±SEM) (lean rats; 180 min): 66 ± 7% | Blood glucose % of vehicle (±SEM) (lean rats; 240 min): 76 ± 4% | Blood glucose % of vehicle (±SEM) (lean rats; 300 min): 76 ± 4%
